Assay results reported in patent US12016880B2, “Halogen treatment of heart attack and ischemic injury” (Fred Hutchinson Cancer Center, priority 2014, dated 2024).

Experiments:
[1] = tested on: mouse model of heart attack; test: Mouse LAD ligation, NaI i.v. pretreatment before ischemia, infarct size by morphometry; type: in vivo
Procedure: To determine whether pretreatment with NaI prior to heart attack improves heart attack outcome, open chest ligation experiments were performed in mice where either vehicle (saline) or test agent (NaI) was injected into the femoral vein of each mouse either 5 minutes or 48 hours before initiation of ischemia. Open chest ligation of the left descending coronary artery (LAD ligation) was then performed, and the heart muscle was reperfused by releasing the ligature at 60 minutes post initiation of ischemia. After 2 hours of reperfusion, infarct size was measured by morphometry as described above (FIG. 3). Three groups of mice were utilized in this study, including a saline vehicle group (n=1) and two test groups that received 1 mg/kg NaI 5 minutes before LAD ligation (n=4) or 1 mg/kg NaI 48 hours before LAD ligation (n=1).

[2] = tested on: mouse model of heart attack; test: Transthoracic echocardiography of left ventricle after myocardial ischemia and reperfusion; type: in vivo; settings: FIG. 4; single intravenous administration two days prior to ligation-induced ischemia
Procedure: For each of the sets of bars for Ejection Fraction and Fractional Shortening, the bars from left to right correspond to the bars from top to bottom shown in the legend.
In vivo transthoracic echocardiography of the left ventricle (LV) using a 30-MHz RMV scanhead interfaced with a Vevo 770 (Visualsonics) was performed, and two-dimensional echocardiography images were obtained. LV end-diastolic diameter (EDD) and LV end-systolic diameter (ESD) were measured at a day before for a baseline and one and 4 weeks after myocardial ischemia and reperfusion. LV percent fractional shortening (FS) and LV ejection fraction (EF) were calculated.

[3] = tested on: mouse model of heart attack; test: Mouse LAD ligation after two days of drinking water containing NaI, infarct size; type: in vivo
Procedure: In order to examine the effect of pre-treatment with drinking water containing NaI on myocardial infarct size in a mouse model of heart attack, three groups of mice were provided with drinking water containing various concentrations of iodide to achieve dosages of 0.07 mg/kg/day (normal drinking water) for the first group; 0.77 mg/kg/day for the second group; or 7.07 mg/kg/day for the third group, for two days immediately prior to open chest ligation of the left descending coronary artery (LAD ligation) to initiate ischemia. A fourth group of mice was provided with normal drinking water for the two days prior to the initiation of ischemia, but at 55 minutes post initiation of ischemia, either vehicle (saline) or test agent (NaI) was injected into the femoral vein of each of these mice. […] After two hours of reperfusion, infarct size was measured by morphometry (FIG. 1). To be certain that all animals in the study were treated in a similar way, the area at risk (AAR) as a proportion of the left ventricle was determined (FIG. 8). Area at risk (AAR) and infarct size (Inf) were measured using the specific dyes TTC and Evans blue. Processed images were generated in an unbiased way by setting constant thresholds and allowing Photoshop® to generate the images that were quantitated to generate the data presented in FIG. 8.

[4] = tested on: mouse model of chronic heart failure; test: Mouse chronic heart failure after LAD ligation, iodide in drinking water, echocardiography; type: in vivo; settings: drinking water 0.77 mg/kg/day iodide from LAD ligation for 12 weeks vs normal drinking water
Procedure: In order to examine the effect of drinking water containing NaI on chronic heart failure following heart attack in a mouse model, two groups of mice were provided with drinking water lacking iodide or drinking water containing 0.77 mg/kg/day iodide starting immediately following open chest ligation of the left descending coronary artery (LAD ligation) to initiate ischemia, and continuing until the end of the study, which lasted 12 weeks. Prior to the LAD ligation and at 1 week, 2 weeks, 4 weeks, 8 weeks, and 12 weeks following the LAD ligation, mice were examined by echocardiography to determine their left ventricle ejection fraction and their left ventricle fractional shortening.

[5] = tested on: rat model of acute myocardial infarction (AMI); test: Rat acute myocardial infarction (30 min LAD occlusion), plasma cTpnI and infarct size; type: in vivo; settings: 1 mg/kg i.v. bolus, vs placebo
Procedure: Male CD®, IGS Rats (300-450 g) were subjected to 30 minutes of LAD occlusion followed by 24-30 hrs of reperfusion. 200-400 uL of blood was drawn at 4 and 24¬30 hrs post-reperfusion for plasma cTpnI measurements by EIA. After the 24-30 hr blood draw, the LAD was re-occluded, and the heart was excised following i.v. administration of Evans Blue. The hearts were frozen overnight, sectioned, and stained with triphenyl tetrazolium chloride for subsequent blinded infarct analysis.
Rats were anesthetized with a ketamine/xylazine mixture (100 mg/kg and 10 mg/kg, respectively) and maintained under 2-3% isoflurane in 100% medical oxygen after intubation with a 16 gauge angiocatheter sheath (Terumo® Surflo i.v. catheter, 16G×2″, VWR Cat. #TESR-OX1651CA). Animals were ventilated using a Harvard Apparatus Model 683 small animal ventilator equipped with a 5 cc cylinder at a tidal volume of 1.5-2.0 mL/stroke and a respiratory rate of 105 strokes/min. With the rat lying on its right side, animal fur was removed from the surgical area with clippers and then cleaned with alcohol pads. The heart beat was visualized through the chest wall and a dorsoventral incision in the left chest wall was made directly over the beating heart. The underlying fascia was dissected away to reveal the ribs and intercostal muscles. […]

[6] = tested on: peripheral blood mononuclear cells (PBMC); test: Mixed lymphocyte culture, tritiated thymidine incorporation; type: cell-based; settings: 5 days culture, 18 hours pulse
Procedure: In particular embodiments, immunosuppression induced by halogen or chalcogenide compounds is assessed by measuring T cell proliferation, e.g., in response to activated antigen presenting cells. Essentially a mixed lymphocyte reaction, this assay exploits that fact that T cell exposure to presented antigens result in T cell activation and proliferation, as well as supportive increases in DNA synthesis. […] Irradiation results in the presentation of numerous antigens to antigen presenting cells, thus the irradiated cells serve as potent activators of T cells. By mixing the irradiated cells with the non-irradiated cells, strong T cell proliferation will occur. This proliferation can be measured using any proliferation assay, as would be commonly known to the skilled artisan. In one embodiment, proliferation is assessed by measuring DNA synthesis. Mixed PBMC were cultured in the presence or absence of halogen or chalcogenide compounds for 5 days, and then pulsed with tritiated thymidine for 18 hours to label newly synthesized DNA. The degree of labeling is directly correlated with the degree of T cell activation, thus low levels of labeling correlate with immunosuppression.
PBMC were either irradiated with 3500 rads (Ax and Bx) or not (A and B). […] Cells were lysed, the lysate filtered to trap the DNA on the filter and the filters counted in a scintillation counter. […]

[7] = tested on: mouse model of heart attack; test: Mouse LAD ligation ischemia/reperfusion, NaI i.v. before reperfusion, infarct size by morphometry; type: in vivo
Procedure: In order to examine the effect of NaI on myocardial infarct size in a mouse model of heart attack, open chest ligation of the left descending coronary artery (LAD ligation) was performed in mice. At 55 minutes post initiation of ischemia, either vehicle (saline) or test agent (NaI) was injected into the femoral vein of each mouse. The heart muscle was reperfused by releasing the ligature at 60 minutes post initiation of ischemia. After 2 hours of reperfusion, infarct size was measured by morphometry (FIG. 1). Five groups of mice were utilized in this study, including a saline vehicle group (n=3) and […] test groups that received 0.25 mg/kg (n=4), 0.5 mg/kg (n=5), 1 mg/kg (n=5), or 2 mg/kg (n=6) of NaI. To be certain that all animals in the study were treated in a similar way, the area at risk (AAR) as a proportion of the left ventricle was determined (FIG. 1). Area at risk (AAR) and infarct size (Inf) were measured using the specific dyes TTC and Evans blue. Processed images were generated in an unbiased way by setting constant thresholds and allowing Photoshop® to generate the images that were quantitated to generate the data presented in FIG. 1.
An additional test was performed under the same conditions but using an expanded range of concentration of NaI.

[8] = Oxidation of selenide in water or glutathione solution (visual darkening); type: physicochemical; settings: 50 mM selenide in 150 mM GSH vs in water, 8 minutes immediately following preparation
Procedure: The photographs show samples of 50 mM selenide in either water (FIG. 5A) or 150 mM GSH (FIG. 5B) over the eight minutes immediately following preparation.

hypoxic injuries = settings: mice and rats; PCT Publication No. WO2005/041655; cited from earlier work

[I-].[Na+] [NaI, sodium iodide]
infarct size (morphometry) ([1]; 1 mg/kg NaI i.v. 5 minutes or 48 hours before LAD ligation, vs saline group (FIG. 3)): statistically significant decreases in infarct size
reduction in infarct size in comparison to vehicle alone ([1]; pre-treatment 1 mg/kg NaI 5 minutes or 48 hours before LAD ligation): approximately 70%
protective effect by echocardiography (LV ejection fraction, fractional shortening) [2]: protective effect of NAI was confirmed by echocardiography
infarct size (morphometry) ([3]; drinking water 0.77 or 7.07 mg/kg/day for two days prior to LAD ligation vs normal water (0.07 mg/kg/day)): statistically significant decreases in infarct size
decrease in infarct size compared with iodide i.v. at the time of reperfusion ([3]; drinking water pre-treatment for two days): somewhat less or comparable
left ventricle ejection fraction [4]: statistically significant increases
left ventricle fractional shortening [4]: statistically significant increases
plasma troponin levels (cTpnI) ([5]; 4 and 24 hr): consistently lower
infarct size ([5]; 24 hrs): smaller
tritiated thymidine labeling (DNA synthesis) ([6]; highest concentration): reduced the amount of labeling
infarct size (morphometry) ([7]; NaI 0.25, 0.5, 1 or 2 mg/kg into femoral vein at 55 minutes of ischemia, 2 hours of reperfusion, vs saline group (FIG. 1)): statistically significant decreases in infarct size
infarct size (morphometry) ([7]; additional test, same conditions, expanded range of concentration of NaI, vs saline group (FIG. 2)): statistically significant decreases in infarct size
reduction in infarct size in comparison to vehicle alone ([7]; each dosage tested (0.25-2 mg/kg NaI i.v. at 55 minutes of ischemia)): approximately 70%

selenide
oxidation of selenide (dark oxidized forms) [8]: reduced levels of oxidation at each time point
tritiated thymidine labeling (DNA synthesis) ([6]; all concentrations): reduced the labeling to control levels

sulfide
metabolism and protection from hypoxic injuries (hypoxic injuries): can reduce metabolism and protect mice and rats from hypoxic injuries
